Laboratory results from patent publication US20040033251A1, “Active agent delivery system including a polyurethane, medical device, and method” (Medtronic, Inc., priority 2002, published 2004).

Experiments:
[1] = Merck Index 13 edit.; cited from earlier work
[2] = Dissolution of coumarin from PL75D/TP blend cap-coated shims in PBS; assay type: physicochemical; details: PL75D/TP cap coats over TL/coumarin base coat, 37° C., FIG. 8
Experimental: PL75D was dried at 70° C. at reduced pressure overnight. The dried pellets were compressed between two plates that were pre-heated to 230° C. and maintained for about 5 minutes. After the sample was cooled down to room temperature, it was placed in a vial filled with THF and stirred until dissolved (by visual observation). TP and TL were directly dissolved in THF by stirring the mixtures at room temperature. Coumarin was also dissolved in THF. The concentrations of all the solutions were about 1 wt-%. TL solution and coumarin solution were mixed at a weigh ratio of 1:1. This mixture is the base coating solution of a reservoir system. TP solution and PL75D solution were mixed at various weight ratios to make five different mixtures with the weight ratios of TP to PL75D being 100:0, 75:25, 50:50, 25:75, and 0:100. […]
Dissolution of coumarin from the cap-coated shims was conducted by placing the coated shims in glass vials that contained phosphate buffered saline solution (PBS, potassium phosphate monobasic (NF tested), 0.144 grams per liter (g/L), sodium chloride (USP tested), 9 g/L, and sodium phosphate dibasic (USP tested) 0.795 g/L, pH=7.0 to 7.2 at 37° C., purchased from HyClone, Logan, Utah). […] The concentration of coumarin in all these solutions was measured with a liquid chromatography (HP 1090) that was equipped with a UV detector. […]

## O=c1ccc2ccccc2o1 [Coumarin]
[1]
  Volume of cold water in which one gram dissolves: 400 mL
[2]
  Release rate versus cap coat composition: release much faster from a 100% PL75D coated shim than that from 100% TP coated shim
